Consider 3 compounds from patent US7514432B2, “Compounds and methods of treating cell proliferative diseases, retinopathies and arthritis” (Exonhit Therapeutics SA, priority 2003, dated 2009).

Usually IC50 stands for the concentration that gives 50% inhibition.

For one data set, the system named is MCF7. Briefly: Cell viability assay (MTT), MCF7. The data set is classed as cell-based. The note with it: Homo sapiens, MCF7, 72 h, 10% FBS, 3-day treatment, 1% DMSO. How it is done:
Table 12: 6-day cell viability assay (MTT) in the presence of 10% Fetal Bovine Serum and 1% DMSO, in HMEC1, HCT116, MDA-MB-231, MCF7 and NIH3T3 cell lines. 3 10^3 to 15 10^3 cells were seeded in 48-well plates in growth medium containing 10% FBS, with or without various concentrations of test compounds. Cell cultures were fed every 3 days with the appropriate media. Cell viability was determined on day 6. Data were analyzed and IC50s were calculated from dose-response curves using GraphPad Prism. Results summarized in the tables are mean±SEM of 1 to 8 independent experiments.
(§1) Table 14: 3-day cell viability assay (MTT) in the presence of 10% Fetal Bovine Serum and 1% DMSO, in DLD1, HCT116, MDA-MB-231, MCF7 and HeLa cells. 7.5 10^3 to 1.5 10^4 cells were seeded in 48-well plates in growth medium containing 10% FBS, with or without various concentrations of test compounds. Data were analyzed and IC50s were calculated from dose-response curves using GraphPad Prism. Results summarized in the tables are mean±SEM of 1 to 7 independent experiments.
(§2) In order to determine a compound's effect on cell viability, microculture tetrazolium assays (MTT) were performed as described by Carmichael et al. (1996) with modifications. Four human tumoral cell lines, namely HCT116 colon adenocarcinoma, H460 lung carcinoma, MCF-7 and MDA-MB-231 breast carcinoma cell lines, DLD1 colorectal adenocarcinoma, HeLa adenocarcinoma, HepG2 hepatocellular carcinoma. 3 immortalized but non tumorigenic cell lines, namely NIH3T3 mouse fibroblasts (American Type Culture Collection) and primary hepatocytes (Biopredic international), cultured according to their recommendations together with Human Microvasculature Endothelial Cell line HMEC1 (National Center for Infectious Diseases). Briefly, cells were seeded in 48-well plates 24 hours before drug addition. Cells were treated with 0 to 200 μM (11 concentrations) of compound solubilized in DMSO, adjusting the final concentration of DMSO to 1% in the well. 16 hours, and three or six days after treatment, 0.5 mg/ml MTT (Sigma) was added to the medium and cells were incubated for 1-5 hours at 37° C. before solubilization of formazan crystals in 100% DMSO. Absorbance was measured using a spectrophotometer at a wavelength of 550 nm. Data was analyzed using the GraphPad Prism software (GraphPad Software, Inc.), and IC50 (dose leading to 50% cell death) was calculated from the dose-response curves.

Another data set deals with HeLa. Briefly: Cell viability assay (MTT), HeLa. The data set is classed as cell-based. Particulars: Homo sapiens, 72 h, 10% FBS, 3-day treatment, 1% DMSO. How it is done: as §1, §2
In another data set the test system is HMEC1. Briefly: Cell viability assay (MTT), HMEC1. The format is cell-based, Human. Particulars: MTT, 10% FBS, 6-day treatment, 1% DMSO. The procedure, abridged: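 HMEC1 cells seeded 24 h before dosing, then exposed to 0–200 μM compound (11 concentrations) in medium with 10% FBS and 1% DMSO final, refed every 3 days. Viability read on day 6 by MTT (0.5 mg/ml, 1–5 h at 37 °C), absorbance 550 nm; IC50 from dose-response curves, mean±SEM of 1–8 experiments.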

For data set [1], the system named is Salmonella typhimurium TA 98 and TA 100 strains. Briefly: Screening Ames test. The note with it: with and without S9 mix; 10 to 5000 μg per plate. The source says: The objective of this study was to evaluate the potential of the test items to induce reverse mutation in Salmonella Typhimurium (TA 98 and TA 100 strains). The bacterial reverse mutation test is able to identify substances that cause point mutations, by substitution, addition or deletion of one or a few DNA base-pairs. Mutagenic substances can induce reversion in histidine deficient strains which are then able to grow and form colonies in a histidine-limited medium, while non-reverted cannot. This test is performed in the absence and presence of a rat liver metabolising system (S9 mix). Three known mutagens are used to check sensitivity of test system: sodium azide, 2-nitrofluorene and 2-anthramine.
The dose levels per plate were of 10 to 5000 μg. A preliminary toxicity test was performed followed by the mutagenecity test per se.
Background: The Ames test uses bacterial strains that need an amino acid and regain growth without it when mutated back.

For the next data set, the system named is DLD1. The data set is described as follows: Cell viability assay (MTT), DLD1. Particulars: Homo sapiens, DLD-1, 72 h, 10% FBS, 3-day treatment, 1% DMSO. The data set is classed as cell-based. How it is done: as §1, §2
In a further data set the test system is NIH 3T3. The data set is described as follows: Cell viability assay (MTT), NIH 3T3. The data set is classed as cell-based, mouse. The note with it: Mus musculus, 10% FBS, 1% DMSO. The method, boiled down:
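MTT viability in medium with 10% FBS and 1% DMSO, with cells seeded 24 h before treatment at 0–200 μM (11 concentrations). There were two formats: 6-day (3–15 10^3 cells, re-fed every 3 days) or 16-hour (5–10 10^4 cells). Absorbance was read at 550 nm, giving IC50 (50% cell death) as mean±SEM.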

A further data set has as its system HCT116. The data set is described as follows: Cell viability assay (MTT), HCT116. The format is cell-based, human. Particulars: 1% DMSO. The procedure, abridged: (§3)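 Cells seeded 24 h before treatment with 0–200 μM compound (11 concentrations, 1% DMSO final) in 10% or 0.5% FBS medium; exposure 16 h, 3 or 6 days, fed every 3 days in 6-day runs. MTT 0.5 mg/ml read at 550 nm; IC50 from dose-response curves, mean±SEM.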

Another data set has as its system MDA-MB-231. The data set is described as follows: Cell viability assay (MTT), MDA-MB-231. The format is cell-based, human. The note with it: Homo sapiens, 1% DMSO. The method, boiled down:
as §3

Another data set concerns Primary Hepatocytes. The data set is described as follows: Cell viability assay (MTT), primary hepatocytes. The format is cell-based. The note with it: Hepatocyte, 10% FBS, 16-hours treatment, 1% DMSO. How it is done: (§4) Table 15: 16-hour cell viability assay (MTT) in the presence of 10% Fetal Bovine Serum and 1% DMSO, in HCT116, MDA-MB-231, NIH3T3, HepG2 and primary hepatocytes. 5 10^4 to 10 10^4 cells were seeded in 48-well plates in growth medium containing 10% FBS, with or without various concentrations of test compounds. Data were analyzed and IC50s were calculated from dose-reponse curves using GraphPad Prism. Results summarized in the tables are mean±SEM of 1 to 2 independent experiments.
as §2

Another data set concerns HepG2. Briefly: Cell viability assay (MTT), HepG2. The note with it: Homo sapiens, 10% FBS, 16-hours treatment, 1% DMSO. The format is cell-based. As to the method:
as §4, §2

A further data set relates to HCT116 cells. Briefly: Anchorage-independent cell growth assay in soft agar. The data set is classed as cell-based, human. Particulars: 7 days; for IC50: Homo sapiens, HCT-116, 168 h, HCT116, 0.3% agar. How it is done: FIG. 3: Anchorage-independent growth assay in soft agar. 5 10^3 cells were seeded in 24-well plates in 0.3% agar-containing medium supplemented with the designated amount of compounds. After 7 days of incubation at 37° C., pictures of each well were taken and analyzed using the ImageJ image analysis software. In particular, clone size and number were calculated. The data were analyzed using GraphPad Prism, and IC50 was calculated. […] (A) Typical dose-response curves obtained for clone size and number. (B) Bar graph displaying the IC50s calculated for each compound.
In order to evaluate the effect of one compound on the capacity of tumour cells to grow without anchorage, HCT116 cells were seeded in soft agar. In contrast to microplate assays which average the drug's effects over an entire cell population, clonogenic assays offer the possibility of distinguishing cytotoxic agents (i.e., decreased colony number) from cytostatic agents (i.e., decreased colony size without decreased colony number; Murphy M. J. et al., 1996). Briefly, 5 10^3 HCT116 cells were resuspended in 300 μl of complete medium containing 0.3% soft-agar (Difco) and different concentrations of compound (8 concentrations ranging from 0 to 30 μM). Cells were then poured on a solidified layer of medium containing 0.5% of soft agar plus the compound at the same concentration as in the upper layer. Cells were incubated for 7 days at 37° C. before pictures of each well were taken using a phase contrast microscope (Nikon) and a digital camera (Nikon Coolpix 990). Pictures were subsequently analyzed using free image analysis software from the NIH (ImageJ) allowing determination of clone size and number.
Data were analyzed using the GraphPad Prism software, and IC50 (dose leading to a 50% decrease of clone size or number) was calculated from dose-response curves.

Where [2] appears, read: Homo sapiens, HCT-116, 144 h, 0.5% FBS, 6-day treatment.
[3] abbreviates: Homo sapiens, HCT-116, 144 h, 10% FBS, 6-day treatment.
Where [4] appears, read: MDA-MB-231, 144 h, 0.5% FBS, 6-day treatment, read-out: IC50 (μM), MDA-MB-231.
The mark [5] stands for this setting: MDA-MB-231, 144 h, 10% FBS, 6-day treatment, read-out: IC50 μM, MDA-MB-231.

Like-named read-outs stand apart in the source and are kept apart here.

As to `O=c1cc(CN2CCOCC2)occ1OCc1cccc(CSc2ccnc3cc(C(F)(F)F)ccc23)c1` [EHT 2725, 5-((3-((7-(Trifluoromethyl)quinolin-4-ylthio)methyl)phenyl)methoxy)-2-(morpholinomethyl)-4H-pyran-4-one], the IC50 in the data set with MCF7 worked out at 7.3 µM; with HeLa it was 20.9 µM; with HMEC1 (Homo sapiens, HMEC-1, 144 h), 28.1 µM; in the data set with DLD1 it was 12.2 µM; with NIH 3T3 (NIH3T3, 144 h, 6-day treatment) it was 24.8 µM; with HCT116 (10% FBS, 6-day treatment), 2.7 µM. In addition, the half-maximal inhibitory concentration (IC50) in the data set with HCT116 (Homo sapiens, HCT-116, 72 h, 10% FBS, 3-day treatment) was 9.9 µM; in the data set with HCT116 (setting [2]), 5.4 µM; in the data set on HCT116 (setting [3]), less than 4 µM; with MDA-MB-231 (MDA-MB-231, 72 h, 10% FBS, 3-day treatment, read-out: IC50 μM, MDA-MB-231), 19.5 µM; in the data set with MDA-MB-231 (setting [4]), 6.4 µM; in the data set with MDA-MB-231 (setting [5]), 9.3 µM. In addition, the IC50 in the data set on Primary Hepatocytes was more than 50 µM; in the data set with HepG2, 45.2 µM. In data set [1], the mutagenic activity entry was “did not show any mutagenic activity”.
Regarding `NC(=O)c1nnn(Cc2cc(Cl)c(C(=O)c3ccc(Cl)cc3)c(Cl)c2)c1N` [CAI, carboxyamidotriazole, reference compound], the IC50 with HMEC1 (Homo sapiens, HMEC-1, 144 h) came to 28.4 µM; in the data set with HCT116 cells it was 5.8 ± 1 µM; in the data set with NIH 3T3 (NIH3T3, 16 h, 16-hours treatment) it was 95.9 µM; in the data set on NIH 3T3 (NIH3T3, 144 h, 6-day treatment), 5.8 µM; in the data set on HCT116 (Homo sapiens, HCT-116, 16 h, 10% FBS, 16-hours treatment), 44.1 µM; with HCT116 (setting [2]) it was 0.6 µM. Further, the IC50 in the data set with HCT116 (setting [3]) is 1 µM; in the data set on MDA-MB-231 (MDA-MB-231, 16 h, 10% FBS, 16-hours treatment, read-out: IC50 μM, MDA-MB-231) it was more than 50 µM; in the data set with MDA-MB-231 (setting [4]) it was 0.4 µM; in the data set on MDA-MB-231 (setting [5]), 1.3 µM. The “mode of action: clone size versus clone number” value in the data set with HCT116 cells (soft agar) was “preferentially affect clone size as compared to clone number”.
Regarding `O=c1cc(COC2CCCCO2)occ1OCCCCCSc1ccnc2cc(C(F)(F)F)ccc12` (stereo not shown) [EHT 9376, 2-(Tetrahydro-pyran-2-yloxymethyl)-5-[5-(7-trifluoromethyl-quinolin-4-ylsulfanyl)-pentyloxy]-4H-pyran-4-one], the IC50 is less than 10 µM with HMEC1 (Homo sapiens, HMEC-1, 144 h); 8.2 µM in the data set on HMEC1; 5.4 ± 1.2 µM in the data set with HCT116 cells; 8.1 µM in the data set on NIH 3T3 (NIH3T3, 144 h, 6-day treatment); 11.5 µM in the data set on MDA-MB-231 (setting [5]).
